Tests used:
[1] = test system: Normal human fibroblast cells (ATCC CCL-171); experiment: Trypan blue viability study of normal human fibroblast cells; conditions: for cytotoxicity of D-lactic acid dimer compared with L-lactic acid: cultured normal fibroblasts, FIGS. 13-16; for Cell characteristic: cells non-viable (trypan blue): normal fibroblasts, 12 hours
Experimental: (§1) Cells for culture were obtained from the Cell Culture Facility at Duke University. PLLA was microwave synthesized from L-lactic acid as previously reported. Lactic acid concentration was measured by tetrazolium indicator color test strips (Accuvin, LLC, Napa, Calif.) from the reaction of L-lactic acid and […] in the presence of lactate dehydrogenase. All cells were cultured at 37° C. and 5% CO2 in a HERA cell incubator (Kendro Laboratory Products, L.P., Newtown, Conn.). Media for cells was Minimum Essential Media with Earl's salts and L-Glutamine (Gibco, Life Technologies) with 10% fetal bovine serum and non-essential amino acids and sodium pyruvate. Antibiotics for experiment #2 were penicillin/streptomycin and for experiments #3-4 were penicillin/streptomycin/amphotericin B. All drug testing was performed in Costar 6 Well Culture Cluster plates (Corning, Corning, N.Y.). The trypan blue concentration was 0.4%.
(§2) Normal human fibroblast cells (ATCC CCL-171) were subcultured onto six well plates. […] The cells were incubated for 12 hours after which time they were stained with 1 ml trypan blue for two minutes. The media and trypan blue were aspirated from each well, and the cells were then placed under an inverted microscope for photography.

[2] = test system: Human retinoblastoma cells (ATCC C-33A); experiment: Trypan blue viability study of human retinoblastoma cells (dose response); conditions: conclusion of Experiment 3
Experimental: (§3) Cells for culture were obtained from the Cell Culture Facility at Duke University. […] All cells were cultured at 37° C. and 5% CO2 in a HERA cell incubator (Kendro Laboratory Products, L.P., Newtown, Conn.). Media for cells was Minimum Essential Media with Earl's salts and L-Glutamine (Gibco, Life Technologies) with 10% fetal bovine serum and non-essential amino acids and sodium pyruvate. Antibiotics for experiment #2 were penicillin/streptomycin and for experiments #3-4 were penicillin/streptomycin/amphotericin B. All drug testing was performed in Costar 6 Well Culture Cluster plates (Corning, Corning, N.Y.). The trypan blue concentration was 0.4%.
(§4) Human retinoblastoma cells (ATCC C-33A) were cultured in six well plates. […] The cells were incubated for 12 hours after which time they were stained with 1 ml trypan blue for two minutes. The media and trypan blue were aspirated from each well, and the cells were examined with an inverted microscope for photography.

[3] = test system: Human retinoblastoma cells; experiment: as above; conditions: 12 hours
Experimental: as §3, §4

[4] = test system: HeLa cells (ATCC CCL-2); experiment: Trypan blue viability study of cultured HeLa cells
Experimental: as §1
as §2, with “HeLa” for “Normal human fibroblast”, “CCL-2)” for “CCL-171)”, “cultured on” for “subcultured onto”, “hours,” for “hours”

[5] = Stereocomplex reaction of L-lactic acid + D-lactic acid dimer (tetrazolium L-lactic acid test strips); conditions: room temperature, two minutes
Experimental: as §1
The reactions were carried out at room temperature and allowed to incubate for two minutes after which 20 microliters were applied to L-lactic acid test strips, and the results were read after two minutes.

| SMILES | cytotoxicity of D-lactic acid dimer compared with L-lactic acid [1] | Cell characteristic: cells non-viable (trypan blue) ([1]; 1.50 mg in 1 ml media) [% cells non-viable] | Cell characteristic: cells non-viable (trypan blue) ([1]; 12.5 mg in 1 ml media) [% cells non-viable] | Cell characteristic: cells non-viable (trypan blue) ([1]; 25 mg in 1 ml media) [% cells non-viable] | effective cytotoxic dose / concentration on human retinoblastoma cells [2] | Trypan blue staining for non-viable cells ([3]; 6.25 mg in 1 ml media) | Trypan blue staining for non-viable cells ([3]; 25 mg in 1 ml media) | concentration at which cytotoxic when applied to HeLa cells ([4]; HeLa, conclusion of Experiment 2) [µg/mL] | cytotoxicity compared to PLLA ([4]; cultured HeLa cells, FIGS. 2 & 3) | concentration at which selectively cytotoxic when locally applied to cancer cells ([4]; summary over cancer cells (HeLa and retinoblastoma)) [µg/mL] | Tetrazolium indicator (L-lactic acid remaining) ([5]; 0.5 mg dimer in 40 microliters of 10 mM L-lactic acid) [mg/L] | Tetrazolium indicator (L-lactic acid remaining) ([5]; 1.0 mg dimer in 40 microliters of 10 mM L-lactic acid) | Tetrazolium indicator (L-lactic acid remaining) ([5]; 5.0 mg dimer in 40 microliters of 10 mM L-lactic acid) | Tetrazolium indicator (L-lactic acid remaining) ([5]; 7.0 mg dimer in 40 microliters of 10 mM L-lactic acid) |
| --- | --- | --- | --- | --- | --- | --- | --- | --- | --- | --- | --- | --- | --- | --- |
| C[C@@H](O)C(=O)O[C@H](C)C(=O)O [D-lactic acid dimer] | less cytotoxic on a molar basis than L-lactic acid | 0 | 100 | 100 | greater than 6.25 mg/ml | Thirty | Fifty | ≥ 5000 | more cytotoxic than a mixture of PLLA oligomers | 5000 to 6250 | 80 | no color change | no color change | no color change |
| C[C@H](O)C(=O)O [L-lactic acid, reference compound] | more cytotoxic than D-lactic acid dimer |  |  |  |  |  |  |  |  |  |  |  |  |  |
